Test results: patent US20040235939A1, “Synthesis of peloruside a and analogs thereof for use as antitumor agents” (priority 2003, published 2004)

Assays:
NCI-H23 = assay: SRB cytotoxicity assay, NCI-H23; assay type: cell-based; conditions: Homo sapiens
Experimental: (§1) Cells were treated on Days 1, 3, 5, and 7 with 5 μL of media, vehicle, or drug. Peloruside A was resuspended in 0.1% DMSO and added to wells to a final concentration of 0.01, 0.1, 1, 10 or 100 nM. Taxol® (Sigma-Aldrich) was resuspended in 0.1% ethanol and added to cells to a final concentration of 0.1, 1, 10, 100, or 1000 nM.
(§2) The amount of surviving cells was measured using the sulforhodamine B (SRB) assay as previously described (Skehan et al., New colorimetric cytotoxicity assay for anticancer-drug screening. J. Natl. Cancer Inst., 1990. 82(13): p. 1107-12). Cells were fixed on Days 5, 7, and 9 (representing 4, 6, and 8 days of exposure to drug or control, respectively) with 50% (w/v) trichloroacetic acid for 1 hour at 4° C., rinsed thoroughly with water, and dried overnight. The dried cells were stained with 4% sulforhodamine B in 1% acetic acid, rinsed thoroughly and dried overnight. The bound dye was resuspended in 10 mM Tris and the absorbance was read at 492 nm. Percent growth inhibition (GI) was calculated as follows: %GI=(1−(absorbance sample/absorbance vehicle))×100. The absorbance value for each drug concentration and control represents the average of 6 replicates. The %GI was plotted against the log[drug] to generate the growth curves. The concentration of drug required to inhibit growth by 50% (GI50) was calculated for each time point.

NCI-H1395 = assay: SRB cytotoxicity assay, NCI-H1395; assay type: cell-based, human; conditions: Homo sapiens
Experimental: as §1, §2

LoVo = assay: SRB cytotoxicity assay, LoVo; assay type: cell-based; conditions: Homo sapiens
Experimental: as §1, §2

BT-549 = assay: SRB cytotoxicity assay, BT-549; assay type: cell-based; conditions: Homo sapiens
Experimental: as §1, §2

Capan-1 = assay: SRB cytotoxicity assay, Capan-1; assay type: cell-based; conditions: Homo sapiens
Experimental: as §1, §2

HCT-116 = assay: SRB cytotoxicity assay, HCT-116; assay type: cell-based; conditions: Homo sapiens
Experimental: as §1, §2

ptx10 cells = assay: Cell Titer-Glo cell viability, Taxol-resistant ptx10 cells; conditions: Homo sapiens, PTX10, 48 h, read-out: cell viability
Experimental: (§3) These cell lines have specific amino acid mutations in tubulin that prevent Taxol®-binding. […] Synthetic (+)-Peloruside A was used for the present example.
(§4) 1A9, ptx10 and ptx22 cells were plated in 96-well plates to approximately 50% confluency. On the next day, Taxol® or Peloruside A was added to each well and incubated for 48 hours. A final concentration of 1, 2, 3, 4, 5, 8, 10, 20, 30, 50, 100, 300, 500, or 1000 nM of Taxol® was used. A final concentration of 10, 20, 30, 40, 50 or 70 nM of Peloruside A was used. Cell viability was measured using the Cell Titer-Glo Luminescent Cell Viability Assay (Promega). FIGS. 80-82 show bar graphs of cell viability at various concentrations of Peloruside A and Taxol®.

MDA-MB-231 = assay: SRB cytotoxicity assay, MDA-MB-231; assay type: cell-based; conditions: Homo sapiens
Experimental: as §1, §2

SK-MEL-28 = assay: SRB cytotoxicity assay, SK-MEL-28; assay type: cell-based; conditions: Homo sapiens
Experimental: as §1, §2

SK-MEL-5 = assay: SRB cytotoxicity assay, SK-MEL-5; assay type: cell-based; conditions: Homo sapiens
Experimental: as §1, §2

A498 = assay: SRB cytotoxicity assay, A498; assay type: cell-based; conditions: Homo sapiens
Experimental: as §1, §2

[1] = system: BSC-1 (Monkey Kidney epithelial) cells; assay: Immunofluorescent staining of tubulin in BSC-1 cells; assay type: cell-based; conditions: 200 nM of Taxol® or 50 nM of Peloruside A
DU-145 = assay: SRB cytotoxicity assay, DU-145; assay type: cell-based; conditions: Homo sapiens
Experimental: as §1, §2

Mia PaCa-2 = assay: SRB cytotoxicity assay, Mia PaCa-2; assay type: cell-based; conditions: Homo sapiens
Experimental: as §1, §2

HCT-15 = assay: SRB cytotoxicity assay, HCT-15; assay type: cell-based; conditions: Homo sapiens
Experimental: as §1, §2

SK-HEP-1 = assay: SRB cytotoxicity assay, SK-HEP-1; assay type: cell-based; conditions: Homo sapiens
Experimental: as §1, §2

NCI-H2887 = assay: SRB cytotoxicity assay, NCI-H2887; assay type: cell-based, human
Experimental: as §1, §2

PC-3 = assay: SRB cytotoxicity assay, PC-3; assay type: cell-based; conditions: Homo sapiens
Experimental: as §1, §2

SK-OV-3 = assay: SRB cytotoxicity assay, SK-OV-3; assay type: cell-based; conditions: Homo sapiens
Experimental: as §1, §2

Hep-G2 = assay: SRB cytotoxicity assay, Hep-G2; assay type: cell-based; conditions: Homo sapiens
Experimental: as §1, §2

ptx22 cells = assay: Cell Titer-Glo cell viability, Taxol-resistant ptx22 cells; conditions: Homo sapiens, 48 h, read-out: cell viability
Experimental: as §3, §4

CC[C@H](/C=C(/C)C1C[C@@H](OC)CC(O)C(C)(C)C2(O)OC(C[C@@H](OC)C2O)C[C@@H](OC)[C@H](O)C(=O)O1)CO (single isomer, unassigned; (+)) [Peloruside A, (+)-Peloruside A]
GI50 (NCI-H23; NCI-H23, 144 h): 7.11 nM
GI50 (NCI-H23; NCI-H23, 192 h): 4.78 nM
GI50 (NCI-H1395; NCI-H1395, 96 h): 1010 nM
GI50 (NCI-H1395; NCI-H1395, 144 h): 84.1 nM
GI50 (NCI-H1395; NCI-H1395, 192 h): 15.2 nM
GI50 (LoVo; 96 h): 11.8 nM
GI50 (LoVo; 144 h): 7.34 nM
GI50 (LoVo; 192 h): 6.14 nM
GI50 (BT-549; BT-549, 96 h): 38.8 nM
GI50 (BT-549; BT-549, 144 h): 4.28 nM
GI50 (BT-549; BT-549, 192 h): 5.73 nM
GI50 (Capan-1; CAPAN-1, 96 h): 29.8 nM
GI50 (Capan-1; CAPAN-1, 144 h): 6.8 nM
GI50 (Capan-1; CAPAN-1, 192 h): 5.21 nM
GI50 (HCT-116; HCT-116, 96 h): 3.64 nM
GI50 (HCT-116; HCT-116, 144 h): 5.81 nM
GI50 (HCT-116; HCT-116, 192 h): 1.79 nM
viability at 0.03 µM (ptx10 cells): ~50%
GI50 (MDA-MB-231; MDA-MB-231, 96 h): 4.02 nM
GI50 (MDA-MB-231; MDA-MB-231, 144 h): 3.4 nM
GI50 (MDA-MB-231; MDA-MB-231, 192 h): 1.53 nM
GI50 (SK-MEL-28; SK-MEL-28, 96 h): 23.3 nM
GI50 (SK-MEL-28; SK-MEL-28, 144 h): 7.29 nM
GI50 (SK-MEL-28; SK-MEL-28, 192 h): 2.07 nM
GI50 (SK-MEL-5; SK-MEL-5, 96 h): 9.42 nM
GI50 (SK-MEL-5; SK-MEL-5, 144 h): 1.76 nM
GI50 (SK-MEL-5; SK-MEL-5, 192 h): 2.44 nM
GI50 (A498; A498, 96 h): 7.3 nM
GI50 (A498; A498, 144 h): 1.9 nM
GI50 (A498; A498, 192 h): 2.75 nM
formation of a bipolar spindle [1]: inhibits the formation of a bipolar spindle
GI50 (DU-145; DU-145, 96 h): 9.2 nM
GI50 (DU-145; DU-145, 144 h): 3.25 nM
GI50 (DU-145; DU-145, 192 h): 2.94 nM
GI50 (Mia PaCa-2; MIA PaCa-2, 96 h): 9.65 nM
GI50 (Mia PaCa-2; MIA PaCa-2, 144 h): 1.76 nM
GI50 (Mia PaCa-2; MIA PaCa-2, 192 h): 2.44 nM
GI50 (HCT-15; HCT-15, 96 h): 14.3 nM
GI50 (HCT-15; HCT-15, 144 h): 9.23 nM
GI50 (HCT-15; HCT-15, 192 h): 11.7 nM
GI50 (SK-HEP-1; SK-HEP1, 96 h): 39.3 nM
GI50 (SK-HEP-1; SK-HEP1, 144 h): 11.2 nM
GI50 (SK-HEP-1; SK-HEP1, 192 h): 1.45 nM
GI50 (NCI-H2887; Homo sapiens, NCI-H2887, 144 h): 674 nM
GI50 (NCI-H2887; Homo sapiens, NCI-H2887, 192 h): 9.15 nM
GI50 (NCI-H2887; NCl-H2887, Lung, 4 Days): 4 Days: Resistant
GI50 (PC-3; PC-3, 96 h): 11.6 nM
GI50 (PC-3; PC-3, 144 h): 6.5 nM
GI50 (PC-3; PC-3, 192 h): 2.46 nM
GI50 (SK-OV-3; SK-OV-3, 96 h): 8.81 nM
GI50 (SK-OV-3; SK-OV-3, 144 h): 8.51 nM
GI50 (SK-OV-3; SK-OV-3, 192 h): 5.77 nM
GI50 (Hep-G2; HepG2, 96 h): 18 nM
GI50 (Hep-G2; HepG2, 144 h): 1.58 nM
GI50 (Hep-G2; HepG2, 192 h): 0.98 nM
viability at 0.03 µM (ptx22 cells): ~50%
